# Results: patent US5552419A, “Arylsulfonamido-substituted hydroxamic acids” (Ciba-Geigy Corporation, priority 1993, dated 1996)
# Key:
# [1] = molecular target: recombinant human stromelysin (Homo sapiens, UniProt P08254); assay: release of KS and S-GAG fragments into the joint in rabbits after intra-articular injection of recombinant human stromelysin; type: in vivo, rabbit; settings: 30 mg/kg, 4 hours prior to injection of human recombinant stromelysin
# Protocol: The effect of compounds of the invention in-vivo can be determined in rabbits. […] Two hours later the rabbits are sacrificed, synovial lavage is collected, and keratan sulfate (KS) and sulfated glycosaminoglycan (S-GAG) fragments released into the joint are quantitated. Keratan sulfate is measured by an inhibition ELISA using the method of Thonar (Thonar, E. J.-M. A., Lenz, M. E., Klinsworth, G. K., Caterson, B., Pachman, L. M., Clickman, P.., Katz, R., Huff, J., Keuttner, K. E. Quantitation of keratan sulfate in blood as a marker of cartilage catabolism, Arthr. Rheum. 28, 1367-1376 (1985)). Sulfated glycosaminoglycans are measured by first digesting the synovial lavage with streptomyces hyaluronidase and then measuring DMB dye binding using the method of Goldberg (Goldberg, R. L. and Kolibas, L. An improved method for determining proteoglycan synthesized by chondrocytes in culture. Connect. Tiss. Res. 24, 265-275 (1990)). For an i.v. study, a compound is solubilized in 1 ml of PEG-400, and for a p.o. study, a compound is administered in 5 ml of fortified […] per kilogram of body weight.
# [2] = system: cartilage degradation; assay: protection against cartilage degradation in a surgical model of osteoarthritis; type: in vivo
# Description: The effect in protecting against cartilage degradation in arthritic disorders can be determined e.g. in a surgical model of osteoarthritis described in Arthritis and Rheumatism, Vol. 26, 875-886 (1983).
# recombinant human stromelysin, sequence (P08254 100-477): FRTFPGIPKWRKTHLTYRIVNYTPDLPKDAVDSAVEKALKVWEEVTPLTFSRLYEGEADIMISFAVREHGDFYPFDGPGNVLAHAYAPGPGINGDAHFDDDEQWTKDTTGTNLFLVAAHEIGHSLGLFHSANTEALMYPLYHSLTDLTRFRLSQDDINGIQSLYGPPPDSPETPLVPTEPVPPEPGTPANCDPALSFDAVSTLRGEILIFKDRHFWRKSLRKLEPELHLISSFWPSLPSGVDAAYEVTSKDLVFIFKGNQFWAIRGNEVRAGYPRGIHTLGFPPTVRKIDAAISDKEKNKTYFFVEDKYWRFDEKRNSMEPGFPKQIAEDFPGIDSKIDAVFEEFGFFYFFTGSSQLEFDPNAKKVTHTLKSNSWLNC
smiles,measurement,setting,value
COc1ccc(S(=O)(=O)N(Cc2cccnc2)[C@@H](C(=O)NO)C(C)C)cc1.Cl [N-hydroxy-2(R)-[[4-methoxybenzenesulfonyl](3-picolyl)amino]-3-methylbutanamide hydrochloride],inhibition in the release of KS fragments into the joint,[1]; KS by inhibition ELISA,72%
same,inhibition in the release of S-GAG fragments into the joint,[1]; S-GAG by DMB dye binding,70%
same,effect in protecting against cartilage degradation in arthritic disorders,[2],protects against cartilage degradation
